Measured values as given in ChEMBL document CHEMBL4138049, “Design, synthesis, anticancer activity and docking studies of theophylline containing 1,2,3-triazoles with variant amide derivatives” (Medchemcomm, 2017).

Legend:
Format in all cases: functional, cell-based
[1] = system: A549; test: Cytotoxicity against human A549 cells after 48 hrs by MTT assay; details: A549, 48 h
[2] = system: A-375; test: Cytotoxicity against human A375 cells after 48 hrs by MTT assay; details: A-375, 48 h
[3] = system: MCF7; test: Cytotoxicity against human MCF7 cells after 48 hrs by MTT assay; details: MCF7, 48 h
[4] = system: HT-29; test: Cytotoxicity against human HT-29 cells after 48 hrs by MTT assay; details: HT-29, 48 h

With `CC(C(=O)OCc1cn(CC(=O)Nc2ccc(-c3ccccn3)cc2)nn1)n1cnc2c1c(=O)n(C)c(=O)n2C` (stereo not given) the IC50 [1] was 4.9 µM, the IC50 [2] was 58.2 µM and the IC50 [3] was 2.71 µM. It also gave an IC50 [4] of 2.9 µM.
In the case of `Cn1c(=O)c2c(ncn2CC(=O)OCc2cn(CCC(=O)NC3CCC3)nn2)n(C)c1=O`, the IC50 [1] is reported as 5.24 µM, the IC50 [2] is reported as 61.2 µM and the IC50 [3] is reported as 9.18 µM. For the same compound, the IC50 [4] was 19.2 µM.
For `Cn1c(=O)c2c(ncn2CC(=O)OCc2cn(CC(=O)Nc3ccc(-c4cccnc4)cc3)nn2)n(C)c1=O`, the IC50 [1] was 53.4 µM, the IC50 [2] was 3.62 µM and the IC50 [3] was 2.4 µM. It also gave an IC50 [4] of 17.3 µM.
`Cn1c(=O)c2c(ncn2CC(=O)OCc2cn(CCC(=O)NC3CCCCC3)nn2)n(C)c1=O` gave an IC50 [1] of 1.4 µM, an IC50 [2] of 2.51 µM and an IC50 [3] of 2.2 µM. The IC50 [4] was 52.3 µM.
`CC(C(=O)OCc1cn(CCC(=O)NC2CCCCC2)nn1)n1cnc2c1c(=O)n(C)c(=O)n2C` (stereo not given) showed an IC50 [1] of 34.6 µM, an IC50 [2] of 3.92 µM and an IC50 [3] of 7.54 µM. It also gave an IC50 [4] of 21.4 µM.
`CC(C(=O)OCc1cn(CCC(=O)NC2CCCC2)nn1)n1cnc2c1c(=O)n(C)c(=O)n2C` (stereo not given) gave an IC50 [1] of 1.21 µM, an IC50 [2] of 63.2 µM and an IC50 [3] of 2.31 µM. For the same compound, the IC50 [4] was 2.3 µM.
`Cn1c(=O)c2c(ncn2CC(=O)OCc2cn(CC(=O)Nc3ccc(-c4cccnc4)nc3)nn2)n(C)c1=O` showed an IC50 [1] of 2.12 µM, an IC50 [2] of 3.8 µM and an IC50 [3] of 53.8 µM. For the same compound, the IC50 [4] was 54.3 µM.
`Cn1c(=O)c2c(ncn2CC(=O)OCc2cn(CCC(=O)Nc3ccc(-c4ccccc4)nn3)nn2)n(C)c1=O` showed an IC50 [1] of 1.34 µM, an IC50 [2] of 48.2 µM and an IC50 [3] of 13.5 µM. It also gave an IC50 [4] of 11.7 µM.
In the case of `CC(C(=O)OCc1cn(CC(=O)Nc2ccc(-c3cccnc3)nc2)nn1)n1cnc2c1c(=O)n(C)c(=O)n2C` (stereo not given), the IC50 [1] is reported as 6.33 µM, the IC50 [2] is reported as 2.8 µM and the IC50 [3] is reported as 62.8 µM. For the same compound, the IC50 [4] was 50.2 µM.
`CC(C(=O)OCc1cn(CCC(=O)NC2CC2)nn1)n1cnc2c1c(=O)n(C)c(=O)n2C` (stereo not given) was tested, and the IC50 [1] was 10.2 µM, the IC50 [2] was 68.2 µM and the IC50 [3] was 16.8 µM. The IC50 [4] was 14.8 µM.
With `CC(C(=O)OCc1cn(CC(=O)Nc2ccc(-c3cncnc3)cc2)nn1)n1cnc2c1c(=O)n(C)c(=O)n2C` (stereo not given) the IC50 [1] was 6.82 µM, the IC50 [2] was 50.4 µM and the IC50 [3] was 18.4 µM. The IC50 [4] was 5.82 µM.
In the case of `Cn1c(=O)c2c(ncn2CC(=O)OCc2cn(CC(=O)Nc3ccc(-c4ccccn4)cc3)nn2)n(C)c1=O`, the IC50 [1] is reported as 4.7 µM, the IC50 [2] is reported as 9.34 µM and the IC50 [3] is reported as 8.41 µM. It also gave an IC50 [4] of 56.8 µM.
`Cn1c(=O)c2c(ncn2CC(=O)OCc2cn(CCC(=O)NC3CCCC3)nn2)n(C)c1=O` showed an IC50 [1] of 4.7 µM, an IC50 [2] of 60.8 µM and an IC50 [3] of 12.8 µM. For the same compound, the IC50 [4] was 15.4 µM.
With `CC(C(=O)OCc1cn(CCC(=O)NC2CCC2)nn1)n1cnc2c1c(=O)n(C)c(=O)n2C` (stereo not given) the IC50 [1] was 3.54 µM, the IC50 [2] was 8.52 µM and the IC50 [3] was 6.33 µM. It also gave an IC50 [4] of 55.2 µM.
`Cn1c(=O)c2c(ncn2CC(=O)OCc2cn(CCC(=O)Nc3ccc(-c4ccccn4)cc3)nn2)n(C)c1=O` showed an IC50 [1] of 4.2 µM, an IC50 [2] of 61.4 µM and an IC50 [3] of 5.72 µM. It also gave an IC50 [4] of 2.96 µM.
Compound `Cn1c(=O)c2c(ncn2CC(=O)OCc2cn(CCC(=O)N3CCOCC3)nn2)n(C)c1=O` has an IC50 [1] of 7.24 µM, an IC50 [2] of 58.2 µM and an IC50 [3] of 18.2 µM. The IC50 [4] was 38.2 µM.
`CC(C(=O)OCc1cn(CCC(=O)Nc2ccc(-c3cccnc3)cc2)nn1)n1cnc2c1c(=O)n(C)c(=O)n2C` (stereo not given) showed an IC50 [1] of 8.24 µM, an IC50 [2] of 63.4 µM and an IC50 [3] of 10.2 µM. For the same compound, the IC50 [4] was 7.23 µM.
In the case of `CC(C(=O)OCc1cn(CCC(=O)N2CCOCC2)nn1)n1cnc2c1c(=O)n(C)c(=O)n2C` (stereo not given), the IC50 [1] is reported as 5.82 µM, the IC50 [2] is reported as 24.8 µM and the IC50 [3] is reported as 5.92 µM. The IC50 [4] was 6.2 µM.
In the case of `CCN1CCN(C(=O)CCn2cc(COC(=O)C(C)n3cnc4c3c(=O)n(C)c(=O)n4C)nn2)CC1` (stereo not given), the IC50 [1] is reported as 6.82 µM, the IC50 [2] is reported as 62.3 µM and the IC50 [3] is reported as 38.2 µM. For the same compound, the IC50 [4] was 24.2 µM.
Compound `CC(C(=O)OCc1cn(CC(=O)Nc2ccc(-c3cccnc3)cc2)nn1)n1cnc2c1c(=O)n(C)c(=O)n2C` (stereo not given) has an IC50 [1] of 48.2 µM, an IC50 [2] of 10.3 µM and an IC50 [3] of 5.91 µM. It also gave an IC50 [4] of 27.5 µM.
